Results: US11919904B2, “Sulfonylamide compounds as CDK2 inhibitors” (Incyte Corporation, priority 2019, dated 2024)

Assays:
[1] = test system: Rb phosphorylated on serine 780 in CCNE1 amplified COV318 cells; assay: CDK2 pRb (S780) HTRF cellular assay; assay type: cell-based; conditions: Homo sapiens, FIG. 10B
Experimental: CDK2 pRb ([…]) HTRF cellular assay enables the quantitative detection of Rb phosphorylated on […] in CCNE1 amplified COV318 cells. The assay comprised two antibodies: Europium cryptate labeled anti-Phospho-Rb […] antibody (donor) and d2 labeled anti-Rb antibody (acceptor). […] The final concentrations of compounds start from 3 μM. […] After 2 h of incubation at room temperature, HTRF signals were measured on the PHERAstar microplate reader (BMG Labtech), using 340 nm as excitation wavelength, a 620 nm filter for the Europium donor fluorescence, and a 665-nm filter for the acceptor fluorescence detection. HTRF signals were calculated as the HTRF ratio (ratio of fluorescence measured at 665 nm and 620 nm)×10000.

[2] = test system: CCNE1 amplified COV318 cells; assay: Cell cycle analysis by FACS in COV318 cells with control or p16 siRNA; assay type: cell-based, human; conditions: 100 nM, sixteen hours
Experimental: To confirm the role of p16 in CDK2-sensitivity of CCNE-amplified cells, COV318 cells were treated with control or p16-specifict siRNA.
(§1) Bulk DNA was stained with DAPI. Compound-treated and DMSO treated control cells were acquired with CytoFlex (Beckman Coulter) and were analyzed using the FlowJo software. For cell cycle analysis of cells with siRNA knockdown, 72 hours after siRNA transfection, cells exposed to 10 μM EdU for 3 hours before detection of Click-iT Alexa Fluor® 647 azide kit.

[3] = test system: CCNE1-amplified cell lines (COV318, OVCAR3); assay: Cell cycle analysis by FACS in CCNE1-amplified cell lines; assay type: cell-based, human; conditions: COV318 and OVCAR3; 16 hours after treatment; compared to DMSO
Experimental: (§2) The effect of CDK4/6-inhibition in CCNE1-amplified versus CCNE1-non-amplified cell lines was evaluated.
(§3) A similar experiment was performed in a larger set of CCNE1-amplified cell lines (COV318 and OVCAR3) and CCNE1-non-amplified cell lines (COV504, OV56, and Igrov1) (FIG. 6).
as §1

[4] = test system: CCNE1-non-amplified cell lines (COV504, OV56, Igrov1); assay: Cell cycle analysis by FACS in CCNE1-non-amplified cell lines; assay type: cell-based, human
Experimental: as §2, §3, §1

[5] = test system: Rb phosphorylation at S780 in CCNE1-non-amplified cell lines (COV504 and OV56); assay: Western blot of Rb phosphorylation at S780 in CCNE1-non-amplified cell lines; assay type: cell-based, human; conditions: one or 15 hours after treatment, various doses
Experimental: The effect of CDK4/6-inhibition on Rb phosphorylation at S780 in CCNE1-amplified versus CCNE1-non-amplified cell lines was evaluated. […] One or 15 hours after treatment, the cells were harvested and total protein was extracted and analyzed by western blot (FIG. 8).
Whole cell extracts were prepared using RIPA buffer (Thermo Scientific, 89900) with a Halt Protease and Phosphatase Inhibitor Cocktail (Thermo Scientific, 78440). Protein concentration was quantified with a BCA Protein Assay Kit (Thermo Scientific, 23225) and 40 μg of protein lysates were loaded for SDS-PAGE using precast gradient gels (Bio-Rad, Hercules, No. 456-1094). Samples were diluted in 5×Laemmli buffer (300 mM Tris-HCl pH 6.8, 10% SDS (w/v), 5% 2-mercaptoethanol, 25% glycerol (v/v), 0.1% bromophenol blue w/v) and boiled for 5 minutes. […] of proteins were separated by 8-15% SDS-PAGE and transferred onto polyvinylidene fluoride (PVDF) membranes. Unspecific binding sites on the PVDF membranes were blocked with 5% non-fat milk in TBST (20 mM Tris-HCl, pH 7.6, 137 mM NaCl, 1% Tween-20). […] Images were captured by Luminescence/Fluorescence Imaging System Odyssey CLx Imager (LI-COR).

Structure (SMILES) | IC50 [1] | percentage of S phase cells ([2]; control siRNA-treated cells) | percentage of S phase cells ([2]; p16 knocked down cells, compared to DMSO control) | percentage of cells at the S phase [3] | percentage of cells at the S phase ([4]; COV504, OV56, Igrov1, 16 hours after treatment, compared to DMSO) | proliferation (cell cycle analysis by FACS) ([4]; COV504 cells, sixteen hours after treatment, increasing concentrations) | Rb phosphorylation at S780 [5]
C[C@@]1(O)CCC[C@H]1n1c(=O)ccc2cnc(NC3CCN(S(C)(=O)=O)CC3)nc21 [Compound A, 8-((1R,2R)-2-hydroxy-2-methylcyclopentyl)-2-((1-(methylsulfonyl)piperidin-4-yl)amino)pyrido[2,3-d]pyrimidin-7(8H)-one] | 37 nM | significantly decreased | not significantly decreased |  |  |  | 
CC(=O)c1c(C)c2cnc(Nc3ccc(N4CCNCC4)cn3)nc2n(C2CCCC2)c1=O [palbociclib] | > 3000 nM |  |  | not significantly different | decreased in CCNE1-non-amplified cell lines in a dose-dependent fashion | dose-dependent inhibition of the proliferation | blocked Rb phosphorylation at S780
